The source made the active and inactive calls.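 The calls were made as follows: active = IC50 at or below 10 micromolar, estimated by hand when no curve fit or under half inhibition at top dose; inactive = IC50 above 10 micromolar.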

Sequence of Steroidogenic factor 1 (Homo sapiens) (Q13285 whole entry, looked up, the tested form may be a part): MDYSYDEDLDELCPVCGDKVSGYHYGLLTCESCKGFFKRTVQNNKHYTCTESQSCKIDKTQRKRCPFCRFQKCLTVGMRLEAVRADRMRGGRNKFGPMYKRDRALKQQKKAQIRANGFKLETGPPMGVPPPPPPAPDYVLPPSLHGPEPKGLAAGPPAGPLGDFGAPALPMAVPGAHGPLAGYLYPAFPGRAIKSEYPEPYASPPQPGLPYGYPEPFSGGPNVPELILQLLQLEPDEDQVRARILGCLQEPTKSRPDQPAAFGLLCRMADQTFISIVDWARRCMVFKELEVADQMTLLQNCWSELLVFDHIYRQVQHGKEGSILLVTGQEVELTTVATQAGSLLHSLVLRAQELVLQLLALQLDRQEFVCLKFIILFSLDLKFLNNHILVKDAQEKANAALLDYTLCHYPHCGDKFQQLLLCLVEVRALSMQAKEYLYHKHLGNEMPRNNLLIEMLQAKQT

The assay concerns the target Steroidogenic factor 1 (Homo sapiens) (UniProt Q13285). Put plainly: SF-1 inhibitors in Gal4 reporter counter-screen, dose response, counter-screen for RORA inhibitor project, cell-based, CHO-K1, Gal4-SF-1 LBD, luciferase luminescence (AID 611). Particulars: CHO-K1 Gal4-SF-1 LBD luciferase reporter.
Regarding `COC(=O)C1=C(CN2CCCc3ccccc32)NC(=O)NC1c1ccc(F)cc1` (centres undefined), the IC50 was 6660 nM. As for `COc1cc(/C=N/O)ccc1OCc1ccc(C(=O)O)cc1`, the figure is 675 nM; as for `Cn1nc(CC(=O)Nc2ccc(N3CCN(C(=O)OC(C)(C)C)CC3)cc2)c2ccccc2c1=O`, 2550 nM; as for `O=S(=O)(c1ccc2c(c1)C(=NO)c1cc(S(=O)(=O)N3CCCCC3)ccc1-2)N1CCCCC1`, 2140 nM.

With `Cc1ccc(C(=O)/C=C/Nc2ccccn2)cc1`, the IC50 was 1500 nM. As for `O=C(/C=C\Nc1ccc2c(c1)OCO2)c1ccccn1`, the IC50 is 1500 nM.

On to `O=C(/C=C\Nc1ccccn1)c1ccc(Cl)cc1`, for which the IC50 was 4880 nM.

For `CC(=O)CC1OC(=O)C(Br)=C1NCc1ccccc1` (centres undefined), the IC50 result is “inactive”.

As to `O=C(O)CCCCCN1C(=O)CSC1=S`, the IC50 was > 99000 nM (inactive).

The values above are taken from PubChem BioAssay AID611 (The Scripps Research Institute Molecular Screening Center, 2007).
